The values below are quoted from earlier work in patent US20220177978A1, “METHODS OF PREDICTING AND PREVENTING CANCER IN PATIENTS HAVING PREMALIGNANT LESIONS” (INSERM (Institut National de la Santé et de la Recherche …, priority 2019, published 2022).

Broadly, the IC50 is the point on the concentration scale where inhibition reaches its midpoint.

SMILES strings stand for the structures.

Series [1] deals with JAK2 (Homo sapiens, UniProt O60674).
Series [2] has as its system other JAK-family kinases.

JAK2, sequence (O60674 whole entry, species assumed): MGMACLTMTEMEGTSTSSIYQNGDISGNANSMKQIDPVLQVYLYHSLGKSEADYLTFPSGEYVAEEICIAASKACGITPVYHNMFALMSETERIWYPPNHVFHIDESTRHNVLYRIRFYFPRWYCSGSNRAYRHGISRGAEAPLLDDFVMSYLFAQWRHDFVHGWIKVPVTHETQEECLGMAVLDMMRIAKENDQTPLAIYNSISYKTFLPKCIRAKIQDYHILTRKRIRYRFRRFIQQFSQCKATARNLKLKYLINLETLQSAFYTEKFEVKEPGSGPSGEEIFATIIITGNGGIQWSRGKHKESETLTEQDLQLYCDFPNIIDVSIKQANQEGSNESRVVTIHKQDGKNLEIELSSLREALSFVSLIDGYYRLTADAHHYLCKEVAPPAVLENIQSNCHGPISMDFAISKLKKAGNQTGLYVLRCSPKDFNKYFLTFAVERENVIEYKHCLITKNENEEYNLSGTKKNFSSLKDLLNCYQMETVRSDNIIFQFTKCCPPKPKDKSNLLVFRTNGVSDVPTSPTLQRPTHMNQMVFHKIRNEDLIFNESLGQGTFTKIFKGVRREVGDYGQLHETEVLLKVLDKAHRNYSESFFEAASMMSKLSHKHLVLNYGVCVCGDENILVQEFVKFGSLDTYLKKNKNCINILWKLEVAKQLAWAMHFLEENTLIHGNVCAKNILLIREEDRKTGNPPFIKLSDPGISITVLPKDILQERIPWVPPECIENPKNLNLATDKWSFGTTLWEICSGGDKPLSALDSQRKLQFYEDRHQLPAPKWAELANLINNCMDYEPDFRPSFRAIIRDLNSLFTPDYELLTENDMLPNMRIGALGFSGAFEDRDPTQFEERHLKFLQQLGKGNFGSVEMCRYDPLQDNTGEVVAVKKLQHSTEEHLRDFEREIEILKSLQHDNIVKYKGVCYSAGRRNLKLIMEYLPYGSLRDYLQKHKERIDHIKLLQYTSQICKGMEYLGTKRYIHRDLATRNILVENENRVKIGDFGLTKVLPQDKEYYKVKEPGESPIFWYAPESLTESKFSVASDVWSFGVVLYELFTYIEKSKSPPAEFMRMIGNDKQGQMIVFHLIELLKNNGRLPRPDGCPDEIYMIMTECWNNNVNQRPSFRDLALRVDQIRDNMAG

Consider `C[C@H](Nc1cc(-c2cnn(C)c2)cc(Nc2cnccn2)n1)c1ccc(F)cc1` [NS018], for which the IC50 in series [1] is < 1 nM. Further, in series [2], the “selectivity for JAK2 over other JAK-family kinases” value is 30-50 fold.
